Earlier results, collected in article PMC11224109, “Synthesis and preclinical evaluation of novel ^18F-vancomycin-based tracers for the detection of bacterial infections using positron emission tomography” (European Journal of Nuclear Medicine and Molecular Imaging, 2024).

Settings: cited from earlier work

For `CN[C@H](CC(C)C)C(=O)N[C@H]1C(=O)N[C@@H](CC(N)=O)C(=O)N[C@H]2C(=O)N[C@H]3C(=O)N[C@H](C(=O)N[C@H](C(=O)O)c4cc(O)cc(O)c4-c4cc3ccc4O)[C@H](O)c3ccc(c(Cl)c3)Oc3cc2cc(c3O[C@@H]2O[C@H](CO)[C@@H](O)[C@H](O)[C@H]2O[C@H]2C[C@](C)(N)[C@H](O)[C@H](C)O2)Oc2ccc(cc2Cl)[C@H]1O` [vancomycin], the “Clinically relevant serum levels” value is given as “about 15 µg/mL”.
